The data set concerns the target T1, human microsomes containing CYP3A4 (Homo sapiens, UniProt P08684).
T1 construct: human microsomes containing CYP3A4; from tissue
The data set can be described thus: Protection of lopinavir from metabolism by human microsomes containing CYP3A4. It counts as biochemical. To be noted: unmetabolized lopinavir after incubation with human microsomes containing CYP3A4; for % LPV Remaining (0.4 μM): compound at 0.4 μM; for % LPV Remaining (4 μM): compound at 4 μM. As to the method:
The pharmacokinetics boosting effects of the compounds of the present invention were evaluated by measuring the compounds' protective effects on the metabolism of lopinavir, an HIV protease inhibitor. Lopinavir were mixed with human microsomes containing CYP3A4 in the presence of a compound of the invention. […] Significant pharmacokinetics boosting effects were also observed for some compounds at 0.4 μM (“% LPV Remaining (0.4 μM)”).

The structures appear in SMILES notation.

T1 sequence (P08684 whole entry): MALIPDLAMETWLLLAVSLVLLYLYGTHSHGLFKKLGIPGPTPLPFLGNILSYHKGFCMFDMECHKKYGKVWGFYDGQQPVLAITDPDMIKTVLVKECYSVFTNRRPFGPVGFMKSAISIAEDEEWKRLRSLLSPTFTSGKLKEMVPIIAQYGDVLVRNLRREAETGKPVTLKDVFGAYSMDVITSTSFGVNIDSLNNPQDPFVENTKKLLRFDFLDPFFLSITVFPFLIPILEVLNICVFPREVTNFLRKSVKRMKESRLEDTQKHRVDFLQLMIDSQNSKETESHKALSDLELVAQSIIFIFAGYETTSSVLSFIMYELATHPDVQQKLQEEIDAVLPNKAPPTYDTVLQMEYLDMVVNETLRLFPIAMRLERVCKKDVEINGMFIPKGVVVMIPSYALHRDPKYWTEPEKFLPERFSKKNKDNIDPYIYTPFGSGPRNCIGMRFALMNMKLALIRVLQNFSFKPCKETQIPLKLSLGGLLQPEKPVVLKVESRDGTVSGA

Consider `O=C(N[C@@H](Cc1ccccc1)C(=O)N(Cc1ccccc1)Cc1ccccc1)OCc1cncs1` [N,N-dibenzyl-N-[(1,3-thiazol-5-ylmethoxy)carbonyl]-L-phenylalaninamide], for which the “% LPV Remaining (0.4 μM)” value was found to be 1.9% and the “% LPV Remaining (4 μM)” value was 78%.

For the compound `CC(C)CN(CC(C)C)C(=O)[C@H](Cc1ccccc1)NC(=O)OCc1cncs1` [N,N-diisobutyl-N-[(1,3-thiazol-5-ylmethoxy)carbonyl]-L-phenylalaninamide], the “% LPV Remaining (0.4 μM)” value was found to be 2% and the “% LPV Remaining (4 μM)” value is reported as 77%.

Consider `O=C(NC(Cc1ccccc1)C(=O)N(CCc1ccccc1)Cc1ccccc1)OCc1cncs1` [N-benzyl-N-(2-phenylethyl)-N-[(1,3-thiazol-5-ylmethoxy)carbonyl]-L-phenylalaninamide], for which the “% LPV Remaining (0.4 μM)” value is given as 1.8% and the “% LPV Remaining (4 μM)” value was 83%.

Values taken from patent US20080161246A1, “Cytochrome P450 Oxidase Inhibitors and Uses Thereof” (ABBOTT LABORATORIES, priority 2006, published 2008).
